{
  "source": "PubChem BioAssay AID2060905",
  "about": "(Molecular Pharmacology Branch, DTP, NCI, 2025)",
  "system": "282377-053-R-J1-PDC complex spheroid viability",
  "assay": "Anticancer human tumor 282377-053-R-J1-PDC patient-derived colon adenocarcinoma cell line growth inhibition [RAS]",
  "conditions": "for IC50: curve of first compound; for viability, T/C: stronger effect = lower value",
  "outline": "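Multi-cell-type spheroids: tumor cells plus HUVEC endothelial cells and mesenchymal stem cells. RAS-pathway inhibitors were combined with targeted agents, each dosed in half-log steps down from clinical Cmax, or from 10 microM when Cmax was unknown.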",
  "key": {"[1]": {"conditions": "second compound 0.000949 µM, first compound 0.0316 µM"}, "[2]": {"conditions": "second compound 0.000949 µM, first compound 0.1 µM"}, "[3]": {"conditions": "second compound 0.000949 µM, first compound 0.316 µM"}, "[4]": {"conditions": "second compound 0.000949 µM, first compound 1 µM"}, "[5]": {"conditions": "second compound 0.000949 µM, first compound 3.16 µM"}, "[6]": {"conditions": "second compound 0.000949 µM, first compound 10 µM"}, "[7]": {"conditions": "second compound 0.003 µM, first compound 0.0316 µM"}, "[8]": {"conditions": "second compound 0.003 µM, first compound 0.1 µM"}, "[9]": {"conditions": "second compound 0.003 µM, first compound 0.316 µM"}, "[10]": {"conditions": "second compound 0.003 µM, first compound 1 µM"}, "[11]": {"conditions": "second compound 0.003 µM, first compound 3.16 µM"}, "[12]": {"conditions": "second compound 0.003 µM, first compound 10 µM"}, "[13]": {"conditions": "second compound 0.00949 µM, first compound 0.0316 µM"}, "[14]": {"conditions": "second compound 0.00949 µM, first compound 0.1 µM"}, "[15]": {"conditions": "second compound 0.00949 µM, first compound 0.316 µM"}, "[16]": {"conditions": "second compound 0.00949 µM, first compound 1 µM"}, "[17]": {"conditions": "second compound 0.00949 µM, first compound 3.16 µM"}, "[18]": {"conditions": "second compound 0.00949 µM, first compound 10 µM"}, "[19]": {"conditions": "second compound 0.03 µM, first compound 0.0316 µM"}, "[20]": {"conditions": "second compound 0.03 µM, first compound 0.1 µM"}, "[21]": {"conditions": "second compound 0.03 µM, first compound 0.316 µM"}, "[22]": {"conditions": "second compound 0.03 µM, first compound 1 µM"}, "[23]": {"conditions": "second compound 0.03 µM, first compound 3.16 µM"}, "[24]": {"conditions": "second compound 0.03 µM, first compound 10 µM"}, "[25]": {"conditions": "second compound 0.0949 µM, first compound 0.0316 µM"}, "[26]": {"conditions": "second compound 0.0949 µM, first compound 0.1 µM"}, "[27]": {"conditions": "second compound 0.0949 µM, first compound 0.316 µM"}, "[28]": {"conditions": "second compound 0.0949 µM, first compound 1 µM"}, "[29]": {"conditions": "second compound 0.0949 µM, first compound 3.16 µM"}, "[30]": {"conditions": "second compound 0.0949 µM, first compound 10 µM"}, "[31]": {"conditions": "second compound 0.3 µM, first compound 0.0316 µM"}, "[32]": {"conditions": "second compound 0.3 µM, first compound 0.1 µM"}, "[33]": {"conditions": "second compound 0.3 µM, first compound 0.316 µM"}, "[34]": {"conditions": "second compound 0.3 µM, first compound 1 µM"}, "[35]": {"conditions": "second compound 0.3 µM, first compound 3.16 µM"}, "[36]": {"conditions": "second compound 0.3 µM, first compound 10 µM"}},
  "data": [
    {"molecule": "CC(C)NCC(C(=O)N1CCN(c2ncnc3c2C(C)CC3O)CC1)c1ccc(Cl)cc1", "note": "(centres undefined) + CCn1c(-c2cc(N3CCN(C)CC3)cnc2C(C)OC)c2c3cc(ccc31)-c1csc(n1)CC(NC(=O)C1CC1C)C(=O)N1CCCC(N1)C(=O)OCC(C)(C)C2;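 note: spheroids exposed to agents for seven days before readout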;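 for viability, T/C: luminescence viability as percent of DMSO vehicle control wells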", "values": [
      {"measurement": "IC50", "setting": "second compound 0.000949 µM", "value": "> 10", "unit": "µM"},
      {"measurement": "IC50", "setting": "second compound 0.003 µM", "value": "> 10", "unit": "µM"},
      {"measurement": "IC50", "setting": "second compound 0.00949 µM", "value": "> 10", "unit": "µM"},
      {"measurement": "IC50", "setting": "second compound 0.03 µM", "value": "> 10", "unit": "µM"},
      {"measurement": "IC50", "setting": "second compound 0.0949 µM", "value": "> 10", "unit": "µM"},
      {"measurement": "IC50", "setting": "second compound 0.3 µM", "value": "> 10", "unit": "µM"},
      {"measurement": "viability, T/C", "setting": "[1]", "value": 96.1, "unit": "%"},
      {"measurement": "viability, T/C", "setting": "[2]", "value": 93.7, "unit": "%"},
      {"measurement": "viability, T/C", "setting": "[3]", "value": 80.8, "unit": "%"},
      {"measurement": "viability, T/C", "setting": "[4]", "value": 79.4, "unit": "%"},
      {"measurement": "viability, T/C", "setting": "[5]", "value": 78, "unit": "%"},
      {"measurement": "viability, T/C", "setting": "[6]", "value": 76.5, "unit": "%"},
      {"measurement": "viability, T/C", "setting": "[7]", "value": 90.7, "unit": "%"},
      {"measurement": "viability, T/C", "setting": "[8]", "value": 106, "unit": "%"},
      {"measurement": "viability, T/C", "setting": "[9]", "value": 88.2, "unit": "%"},
      {"measurement": "viability, T/C", "setting": "[10]", "value": 71.8, "unit": "%"},
      {"measurement": "viability, T/C", "setting": "[11]", "value": 76.2, "unit": "%"},
      {"measurement": "viability, T/C", "setting": "[12]", "value": 68.3, "unit": "%"},
      {"measurement": "viability, T/C", "setting": "[13]", "value": 93, "unit": "%"},
      {"measurement": "viability, T/C", "setting": "[14]", "value": 119, "unit": "%"},
      {"measurement": "viability, T/C", "setting": "[15]", "value": 79.4, "unit": "%"},
      {"measurement": "viability, T/C", "setting": "[16]", "value": 68, "unit": "%"},
      {"measurement": "viability, T/C", "setting": "[17]", "value": 70.7, "unit": "%"},
      {"measurement": "viability, T/C", "setting": "[18]", "value": 69.1, "unit": "%"},
      {"measurement": "viability, T/C", "setting": "[19]", "value": 111, "unit": "%"},
      {"measurement": "viability, T/C", "setting": "[20]", "value": 83.1, "unit": "%"},
      {"measurement": "viability, T/C", "setting": "[21]", "value": 82.5, "unit": "%"},
      {"measurement": "viability, T/C", "setting": "[22]", "value": 70, "unit": "%"},
      {"measurement": "viability, T/C", "setting": "[23]", "value": 65.3, "unit": "%"},
      {"measurement": "viability, T/C", "setting": "[24]", "value": 64.4, "unit": "%"},
      {"measurement": "viability, T/C", "setting": "[25]", "value": 95.3, "unit": "%"},
      {"measurement": "viability, T/C", "setting": "[26]", "value": 87.6, "unit": "%"},
      {"measurement": "viability, T/C", "setting": "[27]", "value": 93.8, "unit": "%"},
      {"measurement": "viability, T/C", "setting": "[28]", "value": 62.8, "unit": "%"},
      {"measurement": "viability, T/C", "setting": "[29]", "value": 63.8, "unit": "%"},
      {"measurement": "viability, T/C", "setting": "[30]", "value": 65.4, "unit": "%"},
      {"measurement": "viability, T/C", "setting": "[31]", "value": 100, "unit": "%"},
      {"measurement": "viability, T/C", "setting": "[32]", "value": 86.6, "unit": "%"},
      {"measurement": "viability, T/C", "setting": "[33]", "value": 109, "unit": "%"},
      {"measurement": "viability, T/C", "setting": "[34]", "value": 69.1, "unit": "%"},
      {"measurement": "viability, T/C", "setting": "[35]", "value": 64.6, "unit": "%"},
      {"measurement": "viability, T/C", "setting": "[36]", "value": 69.9, "unit": "%"}
    ]},
    {"molecule": "CC(Nc1ccc2c(c1)OCCn1cc(N3C(=O)OCC3C(F)F)nc1-2)C(N)=O", "note": "(centres undefined) + CCn1c(-c2cc(N3CCN(C)CC3)cnc2C(C)OC)c2c3cc(ccc31)-c1csc(n1)CC(NC(=O)C1CC1C)C(=O)N1CCCC(N1)C(=O)OCC(C)(C)C2", "values": [
      {"measurement": "IC50", "setting": "second compound 0.000949 µM", "value": "> 10", "unit": "µM"},
      {"measurement": "IC50", "setting": "second compound 0.003 µM", "value": "> 10", "unit": "µM"},
      {"measurement": "IC50", "setting": "second compound 0.00949 µM", "value": "> 10", "unit": "µM"},
      {"measurement": "IC50", "setting": "second compound 0.03 µM", "value": "> 10", "unit": "µM"},
      {"measurement": "IC50", "setting": "second compound 0.0949 µM", "value": "> 10", "unit": "µM"},
      {"measurement": "IC50", "setting": "second compound 0.3 µM", "value": "> 10", "unit": "µM"},
      {"measurement": "viability, T/C", "setting": "[1]", "value": 95.5, "unit": "%"},
      {"measurement": "viability, T/C", "setting": "[2]", "value": 104, "unit": "%"},
      {"measurement": "viability, T/C", "setting": "[3]", "value": 81.1, "unit": "%"},
      {"measurement": "viability, T/C", "setting": "[4]", "value": 80, "unit": "%"},
      {"measurement": "viability, T/C", "setting": "[5]", "value": 74.3, "unit": "%"},
      {"measurement": "viability, T/C", "setting": "[6]", "value": 77.4, "unit": "%"},
      {"measurement": "viability, T/C", "setting": "[7]", "value": 96.5, "unit": "%"},
      {"measurement": "viability, T/C", "setting": "[8]", "value": 104, "unit": "%"},
      {"measurement": "viability, T/C", "setting": "[9]", "value": 95.2, "unit": "%"},
      {"measurement": "viability, T/C", "setting": "[10]", "value": 81.8, "unit": "%"},
      {"measurement": "viability, T/C", "setting": "[11]", "value": 75.3, "unit": "%"},
      {"measurement": "viability, T/C", "setting": "[12]", "value": 70.6, "unit": "%"},
      {"measurement": "viability, T/C", "setting": "[13]", "value": 103, "unit": "%"},
      {"measurement": "viability, T/C", "setting": "[14]", "value": 83.4, "unit": "%"},
      {"measurement": "viability, T/C", "setting": "[15]", "value": 109, "unit": "%"},
      {"measurement": "viability, T/C", "setting": "[16]", "value": 96.5, "unit": "%"},
      {"measurement": "viability, T/C", "setting": "[17]", "value": 84.5, "unit": "%"},
      {"measurement": "viability, T/C", "setting": "[18]", "value": 68.3, "unit": "%"},
      {"measurement": "viability, T/C", "setting": "[19]", "value": 86.6, "unit": "%"},
      {"measurement": "viability, T/C", "setting": "[20]", "value": 83.2, "unit": "%"},
      {"measurement": "viability, T/C", "setting": "[21]", "value": 84.1, "unit": "%"},
      {"measurement": "viability, T/C", "setting": "[22]", "value": 80.3, "unit": "%"},
      {"measurement": "viability, T/C", "setting": "[23]", "value": 82.2, "unit": "%"},
      {"measurement": "viability, T/C", "setting": "[24]", "value": 70.7, "unit": "%"},
      {"measurement": "viability, T/C", "setting": "[25]", "value": 90.6, "unit": "%"},
      {"measurement": "viability, T/C", "setting": "[26]", "value": 82.9, "unit": "%"},
      {"measurement": "viability, T/C", "setting": "[27]", "value": 93.7, "unit": "%"},
      {"measurement": "viability, T/C", "setting": "[28]", "value": 95.3, "unit": "%"},
      {"measurement": "viability, T/C", "setting": "[29]", "value": 82.9, "unit": "%"},
      {"measurement": "viability, T/C", "setting": "[30]", "value": 98.7, "unit": "%"},
      {"measurement": "viability, T/C", "setting": "[31]", "value": 106, "unit": "%"},
      {"measurement": "viability, T/C", "setting": "[32]", "value": 78.9, "unit": "%"},
      {"measurement": "viability, T/C", "setting": "[33]", "value": 94.3, "unit": "%"},
      {"measurement": "viability, T/C", "setting": "[34]", "value": 104, "unit": "%"},
      {"measurement": "viability, T/C", "setting": "[35]", "value": 84.3, "unit": "%"},
      {"measurement": "viability, T/C", "setting": "[36]", "value": 87.9, "unit": "%"}
    ]}
  ]
}
